Test results from patent publication EP3375430A1, “FRAGRANCE COMPOSITIONS” (Takasago International Corporation, priority 2017, dated 2018).

Key:
[1] = Headspace concentration of fragrance ingredients over blotter (thermal desorption GC-MS); format: physicochemical
Protocol: The headspace concentration of individual ingredients of fragrance TAK, as formulated in either a conventional EdT (EdT1) or a fragrance composition of the invention (C1), was assessed by the method described below.
A 10 cm length was cut from a standard perfumers' blotter. A sample of 100µL volume was applied to the upper surface of the blotter with a syringe. The blotter was placed on a hot plate thermostatted at 32°C and left to equilibrate for 5 minutes. Two desorption tubes (6cm length 4mm internal diameter) each containing 2 cm length of Tenax TA adsorbent were fitted to the glass part of a headspace apparatus shown in figure 9. The glass part was fitted over the blotter, a metering pump was connected to one of the desorption tubes and air was drawn through the apparatus flushing the headspace over the blotter at a rate of 17mL/min. Sampling continued for about 16.5 minutes until 280mL of air had been extracted. Then the outlet desorption tube was analysed by gas chromatography as described below. The glass part was removed from the blotter which was left on the hotplate until the next sampling time when two fresh desorption tubes were fitted and the extraction procedure repeated for a further 280mL of extracted headspace.
• Initial Temp: 50°C • Initial Time: 5 min • Rate: 3°C /min • Final Temp: 250°C • Final Time: 20 min • Run Time: 91.67 min
• Column: HP-5MS 30m * 0.25mm * 0.25µm • Gas: Helium • Constant pressure 12.675 psi
• Initial Temp: -30°C • Equilibration Time: 0.05 min • Initial Time: 0.00 min • Rate 12°C / min • End Temp: 260°C • Hold Time: 10 min
Temperature program • Initial Temp: 35°C • Delay Time: 0.30 min • Initial Time: 0.00 min • Rate: 30°C / min • End Temp: 250°C • Hold Time: 5.00 min
TDU Settings • Transfer Temp: 250°C • Transfer Temp Mode: Fixed • Desorption Mode: splitless • Sample mode: Retain tube - standby cooling • Standby Temp: 50°C
Detector MS • MS 5973 • Mass range: 35 to 350 • Threshold: 150 • Mass Quad: 150°C • Mass Source: 230°C
Following the procedure of example 2, the headspace concentration of representative ingredients of fragrance COM1 was determined. COM1 was dosed at 5 and 20 % either in control EdT3 and EdT4 or in compositions of the invention C7 and C8, as shown in table 10.
The headspace concentration of individual ingredients of fragrance TAK (see Table 1), as formulated in either a conventional EdT (EdT1) or fragrance compositions of the invention (C14, C15), was assessed by the method described in example 2.

[2] = Amount of fragrance ingredients retained on paper blotter after evaporation (ethanol extraction, GC-MS); format: physicochemical
Protocol: A fragrance (hereafter fragrance TAK, the formulation of which is shown in table 1) was formulated in a typical Eau de Toilette (EdT1) or in fragrance compositions according to the invention (compositions C1 to C4), as shown in table 2. The amount of individual fragrance ingredients retained on paper substrate (blotter) after set time periods was assessed by the following method.
100µL samples of either EdT1 or compositions C1 to C4 were applied to 4.5cm long standard paper blotters with a microsyringe. Three replicate blotters were prepared for each extraction time. After the appropriate evaporation time each of the 3 blotters was transferred to a 30mL glass bottle. 3mL of ethanol and 50µL of a 1% solution of methyl decanoate in ethanol as an internal standard were added. The bottle was sealed and placed on a roller bed to extract the blotter for 1 hour. A sample of the extracting solution was transferred to a vial which was sealed and analysed by gas chromatography (GC 6890) with a Mass Spectrometer detector (MS 5973) using the method described below. The results of the three replicate measurements were averaged. At exact times the same extraction was repeated on the remaining blotters which were stored on a warm surface at 32°C open to the air to allow evaporation. The gas chromatography conditions were as given below.
• Initial Temp: 50°C • Initial Time: 2 min • Rate: 10°C /min • Final Temp: 280°C • Final Time: 5 min • Run Time: 30 min
• Column: HP-5MS 30m * 0.25mm * 0.25µm • Gas: Helium • Constant Pressure 18.55 psi
• Split mode Ratio 40:1 • Inlet Temp: 250°C
• MS 5973 • Mass range: 35 to 350 • Threshold: 100 • Mass Quad: 150°C • Mass Source: 230°C
To simplify the results the average amount of each fragrance ingredient from the 3 samples measured at time zero was set at 100% and all other measurements were then related to that value so tables 3 to 6 show decreasing amounts of fragrance ingredients as a percentage of the initial amount.
The method of example 1 was repeated using a commercial fragrance (hereafter fragrance COM1, the formulation of which is given in table 7) formulated in a typical Eau de Toilette (EdT2) or in fragrance compositions according to the invention (compositions C5 and C6), as shown in table 8.

C=CC(C)(O)CCC=C(C)CC (mixture of isomers) [Ethyl Linalool, Ethyl linalool]
headspace concentration in composition C8 compared to control EdT4 ([1]; COM1 dosed at 20 wt%, up to 8 hours, Figures 8 to 10): significantly higher
amount of fragrance ingredient retained on blotter (percentage of the initial amount) ([2]; Table 9, fragrance COM1 in C5, T0 + 15 min): 80.96%
amount of fragrance ingredient retained on blotter (percentage of the initial amount) ([2]; Table 9, fragrance COM1 in C5, T0 + 480 min): 8.4%
amount of fragrance ingredient retained on blotter (percentage of the initial amount) ([2]; Table 9, fragrance COM1 in C5, T0 +1440 min): 2.22%
amount of fragrance ingredient retained on blotter (percentage of the initial amount) ([2]; Table 9, fragrance COM1 in C6, T0 + 15 min): 70.8%
amount of fragrance ingredient retained on blotter (percentage of the initial amount) ([2]; Table 9, fragrance COM1 in C6, T0 + 480 min): 6.9%
amount of fragrance ingredient retained on blotter (percentage of the initial amount) ([2]; Table 9, fragrance COM1 in C6, T0 +1440 min): 2.6%
amount of fragrance ingredient retained on blotter (percentage of the initial amount) ([2]; Table 9, fragrance COM1 in EdT2, C5 or C6, T0, set at 100% (normalisation)): 100%
amount of fragrance ingredient retained on blotter (percentage of the initial amount) ([2]; Table 9, fragrance COM1 in EdT2, T0 + 15 min): 67.48%
amount of fragrance ingredient retained on blotter (percentage of the initial amount) ([2]; Table 9, fragrance COM1 in EdT2, T0 + 480 min): 9.91%
amount of fragrance ingredient retained on blotter (percentage of the initial amount) ([2]; Table 9, fragrance COM1 in EdT2, T0 +1440 min): 7.26%

CC/C=C\CCOC(=O)c1ccccc1O [Cis 3-hexenyl salicylate, Cis-3-hexenyl salicylate]
headspace concentration in composition C1 compared to control EdT1 ([1]; fragrance TAK, T0 + 8h, Figure 4): lower
amount of fragrance ingredient retained on blotter (percentage of the initial amount) ([2]; Table 3, fragrance TAK in C1, 15 min, 32°C): 76%
amount of fragrance ingredient retained on blotter (percentage of the initial amount) ([2]; Table 3, fragrance TAK in C1, 60 min, 32°C): 77%
amount of fragrance ingredient retained on blotter (percentage of the initial amount) ([2]; Table 3, fragrance TAK in C1, 120 min, 32°C): 75%
amount of fragrance ingredient retained on blotter (percentage of the initial amount) ([2]; Table 3, fragrance TAK in C1, 240 min, 32°C): 73%
amount of fragrance ingredient retained on blotter (percentage of the initial amount) ([2]; Table 3, fragrance TAK in C1, 480 min, 32°C): 60%
amount of fragrance ingredient retained on blotter (percentage of the initial amount) ([2]; Table 3, fragrance TAK in EdT1, 15 min, 32°C): 96%
amount of fragrance ingredient retained on blotter (percentage of the initial amount) ([2]; Table 3, fragrance TAK in EdT1, 60 min, 32°C): 87%
amount of fragrance ingredient retained on blotter (percentage of the initial amount) ([2]; Table 3, fragrance TAK in EdT1, 120 min, 32°C): 85%
amount of fragrance ingredient retained on blotter (percentage of the initial amount) ([2]; Table 3, fragrance TAK in EdT1, 240 min, 32°C): 80%
amount of fragrance ingredient retained on blotter (percentage of the initial amount) ([2]; Table 3, fragrance TAK in EdT1, 480 min, 32°C): 32%
amount of fragrance ingredient retained on blotter (percentage of the initial amount) ([2]; Table 3, fragrance TAK in EdT1 or C1, T0, set at 100% (normalisation)): 100%
amount of fragrance ingredient retained on blotter (percentage of the initial amount) ([2]; Table 4, fragrance TAK in C2, 15 min, 32°C): 99%
amount of fragrance ingredient retained on blotter (percentage of the initial amount) ([2]; Table 4, fragrance TAK in C2, 480 min, 32°C): 63%
amount of fragrance ingredient retained on blotter (percentage of the initial amount) ([2]; Table 4, fragrance TAK in EdT1, 15 min, 32°C): 84%
amount of fragrance ingredient retained on blotter (percentage of the initial amount) ([2]; Table 4, fragrance TAK in EdT1, 480 min, 32°C): 32%
amount of fragrance ingredient retained on blotter (percentage of the initial amount) ([2]; Table 4, fragrance TAK in EdT1 or C2, T0, set at 100% (normalisation)): 100%
amount of fragrance ingredient retained on blotter (percentage of the initial amount) ([2]; Table 5, fragrance TAK in C3, 15 min, 32°C): 78%
amount of fragrance ingredient retained on blotter (percentage of the initial amount) ([2]; Table 5, fragrance TAK in C3, 60 min, 32°C): 84%
amount of fragrance ingredient retained on blotter (percentage of the initial amount) ([2]; Table 5, fragrance TAK in C3, 120 min, 32°C): 83%
amount of fragrance ingredient retained on blotter (percentage of the initial amount) ([2]; Table 5, fragrance TAK in C3, 240 min, 32°C): 82%
amount of fragrance ingredient retained on blotter (percentage of the initial amount) ([2]; Table 5, fragrance TAK in C3, 480 min, 32°C): 61%
amount of fragrance ingredient retained on blotter (percentage of the initial amount) ([2]; Table 5, fragrance TAK in C3, 1440 min, 32°C): 50%
amount of fragrance ingredient retained on blotter (percentage of the initial amount) ([2]; Table 5, fragrance TAK in EdT1, 15 min, 32°C): 96%
amount of fragrance ingredient retained on blotter (percentage of the initial amount) ([2]; Table 5, fragrance TAK in EdT1, 60 min, 32°C): 87%
amount of fragrance ingredient retained on blotter (percentage of the initial amount) ([2]; Table 5, fragrance TAK in EdT1, 120 min, 32°C): 85%
amount of fragrance ingredient retained on blotter (percentage of the initial amount) ([2]; Table 5, fragrance TAK in EdT1, 240 min, 32°C): 80%
amount of fragrance ingredient retained on blotter (percentage of the initial amount) ([2]; Table 5, fragrance TAK in EdT1, 480 min, 32°C): 32%
amount of fragrance ingredient retained on blotter (percentage of the initial amount) ([2]; Table 5, fragrance TAK in EdT1, 1440 min, 32°C): 14%
amount of fragrance ingredient retained on blotter (percentage of the initial amount) ([2]; Table 5, fragrance TAK in EdT1 or C3, T0, set at 100% (normalisation)): 100%
amount of fragrance ingredient retained on blotter (percentage of the initial amount) ([2]; Table 6, fragrance TAK in C4, 15 min, 32°C): 92%
amount of fragrance ingredient retained on blotter (percentage of the initial amount) ([2]; Table 6, fragrance TAK in C4, 60 min, 32°C): 84%
amount of fragrance ingredient retained on blotter (percentage of the initial amount) ([2]; Table 6, fragrance TAK in C4, 120 min, 32°C): 93%
amount of fragrance ingredient retained on blotter (percentage of the initial amount) ([2]; Table 6, fragrance TAK in C4, 240 min, 32°C): 94%
amount of fragrance ingredient retained on blotter (percentage of the initial amount) ([2]; Table 6, fragrance TAK in C4, 480 min, 32°C): 65%
amount of fragrance ingredient retained on blotter (percentage of the initial amount) ([2]; Table 6, fragrance TAK in EdT1, 15 min, 32°C): 96%
amount of fragrance ingredient retained on blotter (percentage of the initial amount) ([2]; Table 6, fragrance TAK in EdT1, 60 min, 32°C): 87%
amount of fragrance ingredient retained on blotter (percentage of the initial amount) ([2]; Table 6, fragrance TAK in EdT1, 120 min, 32°C): 85%
amount of fragrance ingredient retained on blotter (percentage of the initial amount) ([2]; Table 6, fragrance TAK in EdT1, 240 min, 32°C): 80%
amount of fragrance ingredient retained on blotter (percentage of the initial amount) ([2]; Table 6, fragrance TAK in EdT1, 480 min, 32°C): 32%
amount of fragrance ingredient retained on blotter (percentage of the initial amount) ([2]; Table 6, fragrance TAK in EdT1 or C4, T0, set at 100% (normalisation)): 100%
